Source: PMC3746205, “Two mixed-NH3/amine platinum (II) anticancer complexes featuring a dichloroacetate moiety in the leaving group” (Scientific Reports, 2013)
“And” between values parts separate entries of the source, which are not always exact repeats. Equal entries are not always repeated. Where two headings read alike, the source gives them in different places.

Key:
[1] = test system: BEAS-2B normal lung epithelial cells; assay: MTS cytotoxicity assay, BEAS-2B; type: cell-based, human; settings: read-out: IC50 (mean ± SD)
Description: (§1) Human lung cancer (A549), human normal lung epithelial cell line (BEAS-2B), human stomach cancer (SGC-7901) and human ovarian cancer (SK-OV-3) were purchased from ATCC, whereas cisplatin-resistant SK-OV-3 cells (SK-OV-3/DDP) were kindly provided by Chinese Academy of Medical Sciences (Beijing, China). Cells were grown in DMEM or RPMI-1640 medium (Hyclone, USA) containing 10% fetal bovine serum. Both media were supplemented with 100 units/ml of penicillin and 100 μg/ml of streptomycin. Cells were maintained at 37°C in a humidified incubator with an atmosphere of 5% CO2.
(§2) Cytotoxicity was determined by performing MTS assay. Briefly, 100 μl of cells suspension were seeded in 96-well cell culture plates and allowed to adhere overnight. The cells were treated with drugs for 48 hours, and then 20 μl of CellTiter 96® AQueous One Solution Reagent (Promega, Madison, USA) was added and the cells were further incubated at 37°C for 1–2 h. Cell viability was measured by reading the absorbance at a wavelength of 490 nm. Concentrations of 50% inhibition of growth (IC50) were calculated on the basis of the relative survival curve.

[2] = test system: SK-OV-3 cells (ovarian carcinoma); assay: MTS cytotoxicity assay, SK-OV-3; type: cell-based, human; settings: read-out: IC50 (mean ± SD)
Description: as §1, §2

[3] = test system: A549 cells (non-small cell lung carcinoma); assay: MTS cytotoxicity assay, A549; type: cell-based, human; settings: read-out: IC50 (mean ± SD)
Description: as §1, §2

[4] = test system: SGC-7901 cells (gastric carcinoma); assay: MTS cytotoxicity assay, SGC-7901; type: cell-based, human; settings: read-out: IC50 (mean ± SD)
Description: as §1, §2

[5] = test system: BEAS-2B normal human lung bronchial epithelial cells; assay: Cell apoptosis assay (Annexin-V-FITC/Propidium iodide, flow cytometry), BEAS-2B; type: cell-based; settings: t = 24 h, n = 3
Description: (§3) Human lung cancer (A549), human normal lung epithelial cell line (BEAS-2B), human stomach cancer (SGC-7901) and human ovarian cancer (SK-OV-3) were purchased from ATCC, whereas cisplatin-resistant SK-OV-3 cells (SK-OV-3/DDP) were kindly provided by Chinese Academy of Medical Sciences (Beijing, China). Cells were grown in DMEM or RPMI-1640 medium (Hyclone, USA) containing 10% fetal bovine serum. Both media were supplemented with 100 units/ml of penicillin and 100 μg/ml of streptomycin. Cells were maintained at 37°C in a humidified incubator with an atmosphere of 5% CO2. To analyze the cells for apoptosis, cells were plated and allowed to adhere overnight. Cells were treated with drugs indicated for 24 hours and then analyzed for apoptosis using Annexin-V-FITC/Propidium iodide staining. Cells were trypsinized, pelleted, washed in PBS, and resuspended in 1×binding buffer containing Annexin-V-FITC and propidium iodide (BD Pharmingen) according to the manufacturer's instructions. The samples were analyzed for the apoptosis using a FACSCalibur flow cytometer (BD Biosciences, Franklin Lakes, NJ).

[6] = test system: A549 cells; assay: Cell apoptosis assay (Annexin-V-FITC/Propidium iodide, flow cytometry), A549; type: cell-based, human; settings: t = 24 h, n = 3
Description: as §3

[7] = test system: cisplatin-resistant SK-OV-3 cells (SK-OV-3/DDP); assay: MTS cytotoxicity assay, cisplatin-resistant SK-OV-3/DDP; type: cell-based, human; settings: for IC50: SK-OV-3/DDP cisplatin-resistant, MTS, t = 48 h, n = 3, read-out: IC50 (mean ± SD); for Resistance Index: ratio of IC50 value of resistant cells (SK-OV-3/DDP) to that of sensitive cells (SK-OV-3)
Description: Cross-resistance profile of the complexes 1a and 2a was evaluated. Resistance Index was defined as the ratio of IC50 value of resistant cells to that of sensitive cells. SK-OV-3 and cisplatin-resistant SK-OV-3 cells (SK-OV-3/DDP) cell lines were chosen for MTS assay because drug resistance frequently occurred in the chemotherapy of ovarian tumors. […] The results may be attributed to the synergistic effect between the platinum pharmacophores and DCA released by the hydrolysis of 1a and 2a in the cells.
as §1, §2

[8] = Hydrolysis rate by HPLC; type: physicochemical; settings: 1:10 (v/v) solution of water and methanol, within 4 hours
Description: Both complexes were nearly insoluble in water or ethanol (≈0.1 mg/ml) and slightly soluble in methanol and DMSO, but soluble in polyethyleneglycol 400 which was chosen as the solvent to make the stock solutions of the complexes for the following biological testing. The hydrolysis rate of the complexes in 1:10 (v/v) solution of water and methanol determined by HPLC was less than 2% within 4 hours and the hydrolysis products were, as expected, dichloroacetate and 1b for complex 1a, or 2b for complex 2a. Complexes 1b and 2b were also synthesized for comparison in HPLC measurements as well as in biological tests. As 1b and 2b were found very soluble in water (>25 mg/ml) compared with 1a or 2a, another synthetic reaction was employed to produce the desired complexes. Accordingly complexes 1b and 2b also have two positional isomeric forms. All the complexes used in our studies were, in fact, a mixture of two isomeric forms.
An Agilent Zorbax SB-C18 column (4.6 × 250 mm, 5 μm) was used with CH3OH/H2O as the mobile phase. The flow rate was 1.0 ml/min, and the column temperature is 40°C. The detection wavelength was 238 nm and the injection volume was 10 μl.

[9] = Solubility in solvents; type: physicochemical
[10] = BEAS-2B normal cells, MTS, t = 48 h, n = 3
[11] = SK-OV-3, MTS, t = 48 h, n = 3, Table 1
[12] = SK-OV-3 (sensitive), MTS, t = 48 h, n = 3, Table 3 cross-resistance experiment

| SMILES | IC50 [1, 10] [µM] | IC50 [2, 11] [µM] | IC50 ([3]; A549, MTS, t = 48 h, n = 3) [µM] | IC50 ([4]; SGC-7901, MTS, t = 48 h, n = 3) [µM] | IC50 [2, 12] [µM] | IC50 [7] [µM] | Resistance Index [7] | other results |
| --- | --- | --- | --- | --- | --- | --- | --- | --- |
| N.N.O=C([O-])C1(C(=O)[O-])CCC1.[Pt+2] [Carboplatin, carboplatin, reference compound] | 74.4 ± 2.51 | 65.3 ± 3.55 | 141 ± 11.3 | 127 ± 11.8 |  |  |  |  |
| N.N.[Cl][Pt][Cl] [Cisplatin, cisplatin, reference compound] | 11.7 ± 0.51 | 5.04 ± 0.25 | 14.8 ± 1.02 | 13.6 ± 1.03 | 5.15 ± 1.38 | 19.2 ± 0.94 | ≈4 | Apoptosis, % (mean ± SD) ([5]; 12.5 μM): 2.64 ± 1.43%; Apoptosis, % (mean ± SD) ([5]; 25 μM): 5.86 ± 1.30%; Apoptosis, % (mean ± SD) ([5]; 50 μM): 38.93 ± 5.26%; Apoptosis, % (mean ± SD) ([5]; 100 μM): 42.80 ± 3.40%; Apoptosis, % (mean ± SD) ([6]; A549, 12.5 μM): 20.09 ± 3.06%; Apoptosis, % (mean ± SD) ([6]; A549, 25 μM): 32.84 ± 5.48%; Apoptosis, % (mean ± SD) ([6]; A549, 50 μM): 50.51 ± 6.42%; Apoptosis, % (mean ± SD) ([6]; A549, 100 μM): 56.28 ± 6.91% |
| N.NC1CCCC1.O=C(OC1CC2(C1)C(=O)[O][Pt][O]C2=O)C(Cl)Cl [Complex 1a] | 61.5 ± 1.5 | 18.1 ± 0.85 | 17.1 ± 1.55 | 21.9 ± 1.96 | 17.8 ± 3.97 | 18.1 ± 2.41 | ≈1 | Apoptosis, % (mean ± SD) ([5]; 12.5 μM): 0.71 ± 0.45%; Apoptosis, % (mean ± SD) ([5]; 25 μM): 1.24 ± 1.73%; Apoptosis, % (mean ± SD) ([5]; 50 μM): 1.27 ± 0.92%; Apoptosis, % (mean ± SD) ([5]; 100 μM): 2.88% and 2.88 ± 2.15%; Hydrolysis rate [8]: less than 2%; Apoptosis, % (mean ± SD) ([6]; A549, 12.5 μM): 18.93% and 18.93 ± 3.83%; Apoptosis, % (mean ± SD) ([6]; A549, 25 μM): 26.76 ± 2.33%; Apoptosis, % (mean ± SD) ([6]; A549, 50 μM): 40.93 ± 9.66%; Apoptosis, % (mean ± SD) ([6]; A549, 100 μM): 67.46 ± 8.06% |
| N.NC1CCCC1.O=C1[O][Pt][O]C(=O)C12CC(O)C2 [Complex 1b] | 79.9 ± 2.57 | 74.2 ± 2.64 | 61.5 ± 7.98 | 56.2 ± 4.88 |  |  |  | Solubility in water [9]: > 25 mg/mL |
| N.NC1CCCCC1.O=C(OC1CC2(C1)C(=O)[O][Pt][O]C2=O)C(Cl)Cl [Complex 2a] | 52.1 ± 3.12 | 11.5 ± 0.91 | 15.3 ± 1.12 | 16.7 ± 0.82 | 10.1 ± 2.38 | 11.1 ± 0.63 | ≈1 | Hydrolysis rate [8]: less than 2% |
| N.NC1CCCCC1.O=C1[O][Pt][O]C(=O)C12CC(O)C2 [Complex 2b] | 75 ± 4.83 | 78.2 ± 1.85 | 71.5 ± 5.21 | 69.5 ± 2.31 |  |  |  | Solubility in water [9]: > 25 mg/mL |
| O=C(O)C(Cl)Cl [DCA, Dichloroacetate] |  |  |  |  |  |  |  | IC50 ([1]; Homo sapiens, BEAS-2B, 48 h): > 200 µM; IC50 ([2]; Homo sapiens, SK-OV-3, 48 h): > 200 µM; IC50 ([3]; Homo sapiens, A549, 48 h): > 200 µM; IC50 ([4]; Homo sapiens, SGC-7901, 48 h): > 200 µM |
